In experiment [1] the target is T1, mutant HIV reverse transcriptase (Y181C mutation) (Human immunodeficiency virus type 1 group M subtype B, UniProt P04585, Y768C).
T1 construct: mutations that occur in the reverse transcriptase segment of the pol gene; made in house
Briefly: Analogous RT inhibition assay, Y181C mutant. The class given is biochemical. The method, then: (§1) 100 μL reaction mixtures were initiated with a combination of primer-template substrate (10 nM final concentration) and dNTPs (0.6 μM dNTPs, 0.75 μM [^3H]-dGTP). The heterodimeric nucleic acid substrate was generated by annealing the DNA primer pD500 (described in Shaw-Reid et al., J. Biol. Chem., 278: 2777-2780; obtained from Integrated DNA Technologies) to t500, a 500 nucleotide RNA template created by in vitro transcription (see Shaw-Reid et al., J. Biol. Chem., 278: 2777-2780). After 1 hour incubation at 37° C., reactions were quenched by 10 μl, streptavidin scintillation proximity assay beads (10 mg/mL, from Amersham Biosciences) in 0.5 M EDTA, pH 8. Microtiter plates were incubated an additional 10 minutes at 37° C. prior to quantification via Topcount (Packard).
(§2) Analogous assays were conducted substituting mutant HIV strains to determine the […] inhibition of compounds of the present invention against mutant HIV reverse transcriptase. In one strain the reverse transcriptase has the Y181C mutation and in the other strain the reverse transcriptase has the K103N mutation. The mutations were generated with the […] site-directed mutagenesis kit (Stratagene). […] The compounds set forth in the other Examples were not tested in the Y181C assay. […] The compounds set forth in the other Examples were not tested in the K103N assay.

In experiment [2] the target is T2, mutant HIV reverse transcriptase (K103N mutation) (Human immunodeficiency virus type 1 group M subtype B, UniProt P04585, K690N).
T2 construct: mutations that occur in the reverse transcriptase segment of the pol gene; made in house
The experiment in a line: Analogous RT inhibition assay, K103N mutant. It is filed as biochemical. As for the experimental part:
as §1, §2

Experiment [3] deals with acute HIV infection of T-lymphoid cells. Briefly: Assay for inhibition of HIV replication (spread assay). The class given is cell-based. Particulars: read-out: IC95, spread assay. As for the experimental part:
An assay for the inhibition of acute HIV infection of T-lymphoid cells (alternatively referred to herein as the “spread assay”) was conducted in accordance with Vacca, J. P. et al., Proc. Natl. Acad. Sci. USA 1994, 91: 4096. […] The compounds set forth in the other Examples were not tested in the spread assay.

Setting [4] is: Human immunodeficiency virus 1, inhibition of acute HIV infection of T-lymphoid cells.
The mark [5] stands for this setting: reverse transcriptase with K103N mutation, tested up to 20 micromolar, read-out: IC50, K103N mutant assay.
Where [6] appears, read: reverse transcriptase with Y181C mutation, tested up to 20 micromolar, read-out: IC50, Y181C mutant assay.

Molecules are shown by their SMILES. Like-named read-outs stand apart in the source and are kept apart here.

What is called IC50 is the point on the concentration scale where inhibition reaches its midpoint. As usually defined, the IC95 is the point of the concentration-response curve where the effect stands at 95%.

For the compound `CO[C@@](C(=O)Nc1[nH]c2ccc(Cl)cc2c1S(=O)(=O)c1ccccc1)(c1ccccc1)C(F)(F)F` [Example 39, (2R)-N-[5-chloro-3-(phenylsulfonyl)-1H-indol-2-yl]-3,3,3-trifluoro-2-methoxy-2-phenylpropanamide], the figures for the IC50 in experiment [1] and in experiment [2] were under 1 µM and under 1000 nM, respectively. Further, the IC95 in experiment [3] (setting [4]) was under 1 µM.

In the case of `O=C(NCc1cccc(Cl)c1)Nc1[nH]c2ccc(Br)cc2c1S(=O)(=O)N1CCCC1` [Example 71, N-[5-bromo-3-(pyrrolidin-1-ylsulfonyl)-1H-indol-2-yl]-N′-(3-chlorobenzyl)urea], the IC50 in experiment [1] was 1 to 20 µM; in experiment [2] (setting [5]), under 1000 nM. Further, the concentration for an effect of 95% (IC95) in experiment [3] (setting [4]) was under 1 µM.

As to `O=C(NCc1ccccc1)Nc1[nH]c2ccc(Br)cc2c1S(=O)(=O)N1CCCC1` [Example 72, N-benzyl-N′-[5-bromo-3-(pyrrolidin-1-ylsulfonyl)-1H-indol-2-yl]urea], the IC50 in experiment [1] was under 1 µM; in experiment [2] (setting [5]), under 1000 nM. The 95% effect concentration (IC95) in experiment [3] (setting [4]) was under 1 µM.

As for `O=C(Nc1ccccn1)Nc1[nH]c2ccc(Br)cc2c1S(=O)(=O)N1CCCC1` [Example 75, N-[5-bromo-3-(pyrrolidin-1-ylsulfonyl)-1H-indol-2-yl]-N′-pyridin-2-ylurea], the IC50 in experiment [1] (setting [6]) was 1 to 20 µM; in experiment [2] (setting [5]), under 1000 nM. Further, the IC95 in experiment [3] (setting [4]) was under 1 µM.

Turning to `O=C(Nc1[nH]c2ccc(Br)cc2c1S(=O)(=O)N1CCCC1)Nc1c(F)cccc1F` [Example 77, N-[5-bromo-3-(pyrrolidin-1-ylsulfonyl)-1H-indol-2-yl]-N′-(2,6-difluorophenyl)urea], the IC50 is 1 to 20 µM in experiment [1] (setting [6]) and under 1000 nM in experiment [2] (setting [5]). The IC95 in experiment [3] (setting [4]) was under 1 µM.

Regarding `O=C(NCc1ccncc1)Nc1[nH]c2ccc(Br)cc2c1S(=O)(=O)N1CCCC1` [Example 86, N-[5-bromo-3-(pyrrolidin-1-ylsulfonyl)-1H-indol-2-yl]-N′-(pyridin-4-ylmethyl)urea], the IC50 in experiment [1] (setting [6]) is over 20 µM; in experiment [2] (setting [5]) it was under 1000 nM. The concentration for an effect of 95% (IC95) in experiment [3] (setting [4]) is under 1 µM.

On to `NC(=O)Nc1[nH]c2ccc(Br)cc2c1S(=O)(=O)N1CCCC1` [Example 89, N-[5-bromo-3-(pyrrolidin-1-ylsulfonyl)-1H-indol-2-yl]urea], for which the figures for the IC50 in experiment [1] (setting [6]) and in experiment [2] were over 20 µM and under 1000 nM, respectively. Also, the IC95 in experiment [3] (setting [4]) is under 1 µM.

Consider `O=C(NCCCc1ccccc1)Nc1[nH]c2ccc(Br)cc2c1S(=O)(=O)N1CCCC1` [Example 90, N-[5-bromo-3-(pyrrolidin-1-ylsulfonyl)-1H-indol-2-yl]-N′-(3-phenylpropyl)urea], for which the IC50 is over 20 µM in experiment [1] (setting [6]) and under 1000 nM in experiment [2]. Also, the IC95 in experiment [3] (Human immunodeficiency virus 1, T-lymphoid) is 1 to 10 µM.

These data come from US20100179122A1 (priority 2005, published 2010).
